Measured values: ChEMBL document CHEMBL4837240 (J Med Chem, 2021)
The source made the active and inactive calls. No cut-off for these calls is given here.

Columns and labels:
MDA-MB-436 = experiment: Anticancer activity against human MDA-MB-436 cells assessed as cell viability incubated for 48 hrs by MTT assay; settings: MDA-MB-436, 48 h
MDA-MB-231 [1] = experiment: Anticancer activity against human MDA-MB-231 cells assessed as cell viability incubated for 48 hrs by MTT assay; settings: MDA-MB-231, 48 h
[2] = Toxicity in BALB/c mouse xenografted with MDA-MB-231 cells assessed as change in spleen at 300 mg/kg, po by hematoxylin and eosin staining based analysis; assay type: organism-based; settings: in vivo
[3] = Toxicity in BALB/c mouse xenografted with MDA-MB-231 cells assessed as change in heart at 300 mg/kg, po by hematoxylin and eosin staining based analysis; assay type: organism-based; settings: in vivo
MDA-MB-231 [4] = experiment: Antimetastatic activity against human MDA-MB-231 cells injected into vein of BALB/c mouse lung metastatic model assessed as less lung metastatic nodules at 25 mg/kg, po once a day measured on day 21; assay type: functional, organism-based; settings: time 21.0 day
[5] = Antiproliferative activity against VEGF-D-induced human dermal lymphatic endothelial cells assessed as cell viability incubated for 48 hrs by CCK-8 assay; assay type: functional, tissue-based; settings: HDLEC
[6] = Toxicity in BALB/c mouse xenografted with MDA-MB-231 cells assessed as uric acid level in blood at 300 mg/kg, po; assay type: organism-based; settings: in vivo
[7] = Toxicity in BALB/c mouse xenografted with MDA-MB-231 cells assessed as ALT level in blood at 300 mg/kg, po; assay type: organism-based; settings: in vivo
[8] = Antiproliferative activity against VEGF-C-induced human dermal lymphatic endothelial cells assessed as cell viability incubated for 48 hrs by CCK-8 assay; assay type: functional, tissue-based; settings: HDLEC
[9] = Toxicity in BALB/c mouse xenografted with MDA-MB-231 cells assessed as change in lung at 300 mg/kg, po by hematoxylin and eosin staining based analysis; assay type: organism-based; settings: in vivo
[10] = Toxicity in BALB/c mouse xenografted with MDA-MB-231 cells assessed as AST level in blood at 300 mg/kg, po; assay type: organism-based; settings: in vivo
HDLEC [11] = experiment: Inhibition of cell migration in VEGF-C-induced human dermal lymphatic endothelial cells assessed as cell migration at 100 nM incubated for 24 hrs by inverted microscopy based by scratch wound healing assay; assay type: functional, tissue-based
[12] = Toxicity in BALB/c mouse xenografted with MDA-MB-231 cells assessed as change in liver at 300 mg/kg, po by hematoxylin and eosin staining based analysis; assay type: organism-based; settings: in vivo
[13] = Toxicity in BALB/c mouse xenografted with MDA-MB-231 cells assessed as change in kidney at 300 mg/kg, po by hematoxylin and eosin staining based analysis; assay type: organism-based; settings: in vivo
[14] = Toxicity in BALB/c mouse xenografted with MDA-MB-231 cells assessed as LDH level in blood at 300 mg/kg, po; assay type: organism-based; settings: in vivo
[15] = Toxicity in BALB/c mouse xenografted with MDA-MB-231 cells assessed as creatinine level in blood at 300 mg/kg, po; assay type: organism-based; settings: in vivo
[16] = Toxicity in BALB/c mouse xenografted with MDA-MB-231 cells assessed as change in liver at 25 mg/kg, po by hematoxylin and eosin staining based analysis; assay type: organism-based; settings: in vivo
[17] = Toxicity in BALB/c mouse xenografted with MDA-MB-231 cells assessed as effect on body weight at 50 mg/kg, po; assay type: organism-based; settings: in vivo
HDLEC [18] = experiment: Anti-lymphangiogenic activity against human dermal lymphatic endothelial cells assessed as inhibition of VEGF-C-mediated tube formation at 100 nM incubated for 12 hrs by inverted microscopy; assay type: functional, tissue-based
HDLEC [19] = experiment: Antimigratory activity against VEGF-C-induced human dermal lymphatic endothelial cells assessed as cell migration at 100 nM incubated for 12 hrs by inverted microscopy based by transwell assay; assay type: functional, tissue-based
[20] = target: Mast/stem cell growth factor receptor Kit (Homo sapiens, UniProt P10721); experiment: Inhibition of c-Kit (unknown origin)
[21] = target: Platelet-derived growth factor receptor beta (Homo sapiens, UniProt P09619); experiment: Inhibition of PDGFRbeta (unknown origin)
Platelet-derived growth factor receptor beta, sequence (P09619 whole entry): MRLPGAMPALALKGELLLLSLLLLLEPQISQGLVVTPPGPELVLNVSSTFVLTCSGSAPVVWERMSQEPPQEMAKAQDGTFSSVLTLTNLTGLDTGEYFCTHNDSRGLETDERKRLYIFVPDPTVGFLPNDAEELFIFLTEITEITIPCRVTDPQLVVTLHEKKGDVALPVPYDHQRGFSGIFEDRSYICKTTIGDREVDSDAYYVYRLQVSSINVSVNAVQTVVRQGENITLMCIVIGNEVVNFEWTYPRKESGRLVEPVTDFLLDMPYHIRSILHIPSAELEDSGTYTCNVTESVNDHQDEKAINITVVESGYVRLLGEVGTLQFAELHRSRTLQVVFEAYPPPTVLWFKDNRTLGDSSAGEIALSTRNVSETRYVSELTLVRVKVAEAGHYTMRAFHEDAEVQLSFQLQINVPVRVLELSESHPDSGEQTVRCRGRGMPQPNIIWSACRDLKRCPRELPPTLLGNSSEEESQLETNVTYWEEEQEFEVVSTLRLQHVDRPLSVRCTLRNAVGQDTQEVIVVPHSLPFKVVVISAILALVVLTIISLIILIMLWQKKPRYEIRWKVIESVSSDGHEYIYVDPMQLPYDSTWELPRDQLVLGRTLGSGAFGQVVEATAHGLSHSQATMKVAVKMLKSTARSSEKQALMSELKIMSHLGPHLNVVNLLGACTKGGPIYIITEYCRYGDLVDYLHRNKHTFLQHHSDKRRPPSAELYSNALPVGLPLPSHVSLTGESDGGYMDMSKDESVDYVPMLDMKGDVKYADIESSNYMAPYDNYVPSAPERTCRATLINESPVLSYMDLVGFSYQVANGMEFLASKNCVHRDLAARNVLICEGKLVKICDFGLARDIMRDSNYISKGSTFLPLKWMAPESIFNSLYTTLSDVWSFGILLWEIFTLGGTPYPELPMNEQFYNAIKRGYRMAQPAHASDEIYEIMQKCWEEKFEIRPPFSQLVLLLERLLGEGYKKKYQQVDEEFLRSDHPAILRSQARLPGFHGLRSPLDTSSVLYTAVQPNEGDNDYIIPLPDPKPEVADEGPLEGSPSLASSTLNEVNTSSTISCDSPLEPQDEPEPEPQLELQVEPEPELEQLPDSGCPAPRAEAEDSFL

Mast/stem cell growth factor receptor Kit, sequence (P10721 whole entry): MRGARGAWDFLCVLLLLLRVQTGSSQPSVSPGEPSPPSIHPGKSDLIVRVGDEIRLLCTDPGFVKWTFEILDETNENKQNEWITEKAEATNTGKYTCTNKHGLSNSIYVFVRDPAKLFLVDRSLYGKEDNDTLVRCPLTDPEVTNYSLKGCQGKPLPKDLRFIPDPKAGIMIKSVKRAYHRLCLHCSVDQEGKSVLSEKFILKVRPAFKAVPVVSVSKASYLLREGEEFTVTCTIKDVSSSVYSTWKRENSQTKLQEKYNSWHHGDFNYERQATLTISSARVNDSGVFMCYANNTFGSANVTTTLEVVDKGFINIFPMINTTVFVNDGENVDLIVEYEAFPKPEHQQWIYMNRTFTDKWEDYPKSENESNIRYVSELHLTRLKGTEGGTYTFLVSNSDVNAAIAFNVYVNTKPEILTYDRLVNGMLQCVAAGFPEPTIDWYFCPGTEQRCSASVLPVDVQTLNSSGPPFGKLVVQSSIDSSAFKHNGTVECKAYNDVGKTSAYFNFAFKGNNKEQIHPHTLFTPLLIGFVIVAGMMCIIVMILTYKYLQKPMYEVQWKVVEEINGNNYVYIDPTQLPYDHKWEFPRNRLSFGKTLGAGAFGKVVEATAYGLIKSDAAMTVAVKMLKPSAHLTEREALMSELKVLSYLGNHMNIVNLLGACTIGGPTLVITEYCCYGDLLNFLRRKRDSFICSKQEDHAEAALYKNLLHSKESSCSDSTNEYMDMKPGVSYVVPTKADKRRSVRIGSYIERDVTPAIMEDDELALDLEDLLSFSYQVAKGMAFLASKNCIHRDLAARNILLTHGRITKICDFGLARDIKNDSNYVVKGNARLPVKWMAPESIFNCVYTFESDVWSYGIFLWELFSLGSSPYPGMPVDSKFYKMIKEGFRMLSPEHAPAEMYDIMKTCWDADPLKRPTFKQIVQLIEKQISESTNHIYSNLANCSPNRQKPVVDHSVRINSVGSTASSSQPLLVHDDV

Compound	IC50 (MDA-MB-436)	IC50 (MDA-MB-231 [1])	further results
C=CS(=O)(=O)N1CCN(c2ccnc3ccc(-c4ccccc4)cc23)CC1	25.3 µM	25.4 µM	
C=CS(=O)(=O)N1CCN(c2nc(OC[C@H]3CCCN3C)nc3sccc23)CC1	> 50 µM	> 50 µM	
C=CS(=O)(=O)N1CCN(c2ncnc3sc(-c4ccccc4)cc23)CC1	21.1 µM	54.2 µM	
C=CS(=O)(=O)N1CCN(c2ncnc3sc(-c4cn(S(=O)(=O)c5ccccc5)c5ccccc45)cc23)CC1	38 µM	40.4 µM	
C=CS(=O)(=O)N1CCN(c2ncnc3sc(-c4ccnc(Cl)c4)cc23)CC1	30.1 µM	27.7 µM	
C=CS(=O)(=O)N1CCN(c2ncnc3sc(-c4c(C)noc4C)cc23)CC1	34.6 µM	28.2 µM	
CN1CCN(c2ccc(-c3cc4c(N5CCN(C(=O)Nc6ccc(F)cc6F)CC5)ncnc4s3)cc2)CC1	20.2 µM	11.4 µM	
C=CS(=O)(=O)N1CCN(c2ccn3ncc(-c4ccccc4)c3n2)CC1	19.5 µM	38.3 µM	
C=CS(=O)(=O)N1CCN(c2ncnc3sc(-c4ccc(OC)cc4)cc23)CC1	28.4 µM	29.9 µM	
COc1ccc(NC(=O)N2CCN(c3ncnc4sc(-c5ccc(N6CCN(C)CC6)cc5)cc34)CC2)cc1	30.1 µM	20.9 µM	
C=CS(=O)(=O)N1CCN(c2ncnc3sc(-c4cc(Br)cnc4F)cc23)CC1	28.4 µM	24.1 µM	
C=CS(=O)(=O)N1CCN(c2ncnc3sc(C4=CCCCC4)cc23)CC1	> 50 µM	> 50 µM	
CCn1c(N)c(C(=O)NC)c(=O)c2ccc(C#C[C@@](C)(O)COC)nc21	> 50 µM	> 50 µM	Activity [2]: Toxic; Activity [3]: Toxic; Activity (MDA-MB-231 [4]): Active; IC50 [5]: 0.72 µM; Activity [6]: Toxic; Activity [7]: Toxic; IC50 [8]: 0.307 µM; Activity [9]: Toxic; Activity [10]: Toxic; Activity (HDLEC [11]): Active; Activity [12]: Toxic; Activity [13]: Toxic; Activity [14]: Toxic; Activity [15]: Toxic; Activity [16]: Toxic; Activity [17]: Toxic; Activity (HDLEC [18]): Active; Activity (HDLEC [19]): Active
CNC(=O)c1cc(COc2nnc(Nc3ccc(Cl)cc3)c3ccoc23)ccn1 [TELATINIB]			IC50 [20]: 0.001 µM; IC50 [21]: 0.015 µM
C=CS(=O)(=O)N1CCN(c2ncnc3ccc(-c4ccccc4)cc23)CC1	23.4 µM	47.9 µM	
C=CS(=O)(=O)N1CCN(c2ncnc3sc(-c4cccs4)cc23)CC1	39 µM	34.1 µM	
C=CS(=O)(=O)N1CCN(c2ncnc3sc(-c4cnn(Cc5ccccc5)c4)cc23)CC1	18.3 µM	19.1 µM	
C=CS(=O)(=O)N1CCN(c2ncnc3sc(-c4cccc5ccccc45)cc23)CC1	28.1 µM	23.7 µM	
C=CS(=O)(=O)N1CCN(c2ncnc3sc(-c4cccc5ncccc45)cc23)CC1	25.9 µM	21 µM	
CN1CCN(c2ccc(-c3cc4c(N5CCN(C(=O)Nc6cccc(F)c6)CC5)ncnc4s3)cc2)CC1	18.3 µM	13.2 µM	
COc1ccccc1NC(=O)N1CCN(c2ncnc3sc(-c4ccc(N5CCN(C)CC5)cc4)cc23)CC1	26.3 µM	23.2 µM	

Second part, led by results:

IC50 (MDA-MB-436)	IC50 (MDA-MB-231 [1])	Compound	further results
11.3 µM	8.43 µM	CC(C)c1cccc(C(C)C)c1NC(=O)N1CCN(c2ncnc3sc(-c4ccc(N5CCN(C)CC5)cc4)cc23)CC1	
11.9 µM	9.27 µM	C=CS(=O)(=O)N1CCN(c2ncnc3sc(-c4ccc(OC)nc4)cc23)CC1	
12.2 µM	5.39 µM	C=CC(=O)N1CCN(c2nc(OC[C@H]3CCCN3C)nc3sc(-c4ccc(C(=O)N5CCN(C)CC5)cc4)cc23)CC1	
7.08 µM	6.41 µM	C=CS(=O)(=O)N1CCN(c2ncnc3sc(-c4ccc(C(F)(F)F)cc4)cc23)CC1	
9.66 µM	8.65 µM	C=CS(=O)(=O)N1CCN(c2ncnc3sc(-c4ccc(C(=O)N5CCN(C)CC5)cc4)cc23)CC1	
8.67 µM	5.9 µM	CN1CCN(c2ccc(-c3cc4c(N5CCN(S(=O)(=O)/C=C/c6ccccc6)CC5)ncnc4s3)cc2)CC1	
5.01 µM	3.93 µM	CN1CCN(c2ccc(-c3cc4c(N5CCN(C(=O)Nc6ccc(C#N)cc6)CC5)ncnc4s3)cc2)CC1	
4.98 µM	3.56 µM	C=CS(=O)(=O)N1CCN(c2nc(OC[C@H]3CCCN3C)nc3sc(-c4ccc(OC)nc4)cc23)CC1	
6.92 µM	6.18 µM	C=CS(=O)(=O)N1CCN(c2ncnc3sc(-c4ccc(N5CCN(C)CC5)cc4)cc23)[C@@H](C)C1	
17.7 µM	18.4 µM	C=CS(=O)(=O)N1CCN(c2ncnc3sc(-c4ccc(N5CCOCC5)cc4)cc23)CC1	
4.08 µM	3.18 µM	C=CS(=O)(=O)N1CCN(c2nc(OCC3CCCCN3C)nc3sc(-c4ccc(C#N)cc4)cc23)CC1 (centres undefined)	
14.3 µM	10.3 µM	CN1CCN(c2ccc(-c3cc4c(N5CCN(C(=O)Nc6ccccc6F)CC5)ncnc4s3)cc2)CC1	
15.1 µM	10.4 µM	C=CS(=O)(=O)N1CCN(c2ncnc3sc(-c4cn(C)nc4C(F)(F)F)cc23)CC1	
7.57 µM	8.13 µM	CN1CCN(c2ccc(-c3cc4c(N5CCN(S(=O)(=O)N6CCCCC6)CC5)ncnc4s3)cc2)CC1	
6.25 µM	4.6 µM	CN1CCN(c2ccc(-c3cc4c(N5CCN(C(=O)Nc6ccc(OC(F)(F)F)cc6)CC5)ncnc4s3)cc2)CC1	
3.44 µM	4.2 µM	C=CS(=O)(=O)N1CCN(c2nc(OC[C@H]3CCCN3C)nc3sc(-c4ccc(C(=O)N5CCN(C)CC5)cc4)cc23)CC1	

IC50 (MDA-MB-436)	IC50 (MDA-MB-231 [1])	Compound	further results
0.54 µM	0.76 µM	C=CS(=O)(=O)N1CCN(c2nc(OC[C@H]3CCCN3C)nc3sc(-c4ccc(N5CCN(C)CC5)cc4)cc23)CC1	
8.84 µM	9.09 µM	CN1CCN(c2ccc(-c3cc4c(N5CCN(C(=O)Nc6cc(C(F)(F)F)ccc6F)CC5)ncnc4s3)cc2)CC1	
10.6 µM	11.5 µM	CN1CCN(c2ccc(-c3cc4c(N5CCN(S(=O)(=O)C6CC6)CC5)ncnc4s3)cc2)CC1	
17.5 µM	16 µM	C=CS(=O)(=O)N1CCN(c2ncnc3sc(-c4ccc(F)nc4)cc23)CC1	
9.17 µM	8.05 µM	C=CS(=O)(=O)N1CCN(c2ncnc3sc(-c4ccc(C#N)cc4)cc23)CC1	
10.7 µM	4.42 µM	CN1CCN(c2ccc(-c3cc4c(N5CCN(S(=O)(=O)c6ccccc6)CC5)nc(OCC5CCCCN5C)nc4s3)cc2)CC1 (centres undefined)	
1.92 µM	2.88 µM	C=CS(=O)(=O)N1CCN(c2nc(OC[C@H]3CCCN3C)nc3sc(-c4ccc(N5CCN(C)CC5)cc4)cc23)[C@@H](C)C1	
10.6 µM	7.33 µM	CCS(=O)(=O)N1CCN(c2ncnc3sc(-c4ccc(N5CCN(C)CC5)cc4)cc23)CC1	
3.44 µM	4.2 µM	CCS(=O)(=O)N1CCN(c2nc(OC[C@H]3CCCN3C)nc3sc(-c4ccc(C(=O)N5CCN(C)CC5)cc4)cc23)CC1	
1.53 µM	3.33 µM	C=CS(=O)(=O)N1CCN(c2nc(OC[C@H]3CCCN3C)nc3sc(-c4ccc(C(=O)N5CCN(C)CC5)cc4)cc23)[C@@H](C)C1	
2.29 µM	3.01 µM	C=CS(=O)(=O)N1CCN(c2nc(OC[C@H]3CCCN3C)nc3sc(-c4ccc(C#N)cc4)cc23)CC1	
7.09 µM	7.59 µM	CN1CCN(c2ccc(-c3cc4c(N5CCN(C(=O)Nc6ccccc6)CC5)ncnc4s3)cc2)CC1	
9.27 µM	5.44 µM	CN1CCN(c2ccc(-c3cc4c(N5CCN(C(=O)Nc6ccc(Cl)cc6)CC5)ncnc4s3)cc2)CC1	
12.4 µM	8.33 µM	CCCNC(=O)N1CCN(c2ncnc3sc(-c4ccc(N5CCN(C)CC5)cc4)cc23)CC1	
8.76 µM	7.55 µM	C=CS(=O)(=O)N1CCN(c2ncnc3sc(-c4ccc(N5CCN(C)CC5)cc4)cc23)CC1	
16.2 µM	42.3 µM	C=CS(=O)(=O)N1CCN(c2ccn3ncc(-c4ccc(N5CCOCC5)cc4)c3n2)CC1	
